Source: patent US20240409523A1, “SUGAR AMIDES AND MIXTURES THEREOF” (Clariant International Ltd, priority 2021, published 2024)

Key:
Format in all cases: cell-based
[1] = tested on: Burkholderia cepacia; assay: MIC, agar dilution (bacteria); settings: Burkholderia cepacia (B); Caso-Agar, pH 7 (+/−0.2)
Procedure: (§1) For testing the inhibition of bacteria, the sample was diluted in demineralized water and added in different concentrations to liquid Caso-Agar at 50° C. and is buffered to pH 7 (+/−0.2). […] Each of the solutions is poured into a petri-dish and inoculated with the same amount of bacteria, yeast or mold respectively. The minimum inhibitory concentration (MIC) is the lowest concentration of the sample that inhibits the growth of the respective microorganism where the next lowest dilution fails to inhibit the growth of said microorganism.

[2] = tested on: Enterobacter aerogenes; assay: MIC, agar dilution (bacteria); settings: Enterobacter aerogenes (B); Caso-Agar, pH 7 (+/−0.2)
Procedure: as §1

[3] = tested on: Escherichia coli; assay: MIC, agar dilution (bacteria); settings: Escherichia coli (B); Caso-Agar, pH 7 (+/−0.2)
Procedure: as §1

[4] = tested on: Klebsiella pneumoniae; assay: MIC, agar dilution (bacteria); settings: Klebsiella pneumoniae (B); Caso-Agar, pH 7 (+/−0.2)
Procedure: as §1

[5] = tested on: Pluralibacter gergoviae; assay: MIC, agar dilution (bacteria); settings: Pluralibacter gergoviae (B); Caso-Agar, pH 7 (+/−0.2)
Procedure: as §1

[6] = tested on: Pseudomonas aeruginosa; assay: MIC, agar dilution (bacteria); settings: Pseudomonas aeruginosa (B); Caso-Agar, pH 7 (+/−0.2)
Procedure: as §1

[7] = tested on: Serratia marcescens; assay: MIC, agar dilution (bacteria); settings: Serratia marcescens (B); Caso-Agar, pH 7 (+/−0.2)
Procedure: as §1

[8] = tested on: Staphylococcus aureus; assay: MIC, agar dilution (bacteria); settings: Staphylococcus aureus (B); Caso-Agar, pH 7 (+/−0.2)
Procedure: as §1

[9] = tested on: Aspergillus brasiliensis; assay: MIC, agar dilution (yeast and mold); settings: Aspergillus brasiliensis (M); Sabouraud-4% Dextrose-Agar, pH 5.6 (+/−0.2)
Procedure: as §1

[10] = tested on: Aspergillus terreus; assay: MIC, agar dilution (yeast and mold); settings: Aspergillus terreus (M); Sabouraud-4% Dextrose-Agar, pH 5.6 (+/−0.2)
Procedure: as §1

[11] = tested on: Candida albicans; assay: MIC, agar dilution (yeast and mold); settings: Candida albicans (Y); Sabouraud-4% Dextrose-Agar, pH 5.6 (+/−0.2)
Procedure: as §1

[12] = tested on: Candida parapsilosis; assay: MIC, agar dilution (yeast and mold); settings: Candida parapsilosis (Y); Sabouraud-4% Dextrose-Agar, pH 5.6 (+/−0.2)
Procedure: as §1

[13] = tested on: Fusarium solani; assay: MIC, agar dilution (yeast and mold); settings: Fusarium solani (M); Sabouraud-4% Dextrose-Agar, pH 5.6 (+/−0.2)
Procedure: as §1

[14] = tested on: Penicillium funicolosum; assay: MIC, agar dilution (yeast and mold); settings: Penicillium funicolosum (M); Sabouraud-4% Dextrose-Agar, pH 5.6 (+/−0.2)
Procedure: as §1

[15] = tested on: Penicillium minioluteum; assay: MIC, agar dilution (yeast and mold); settings: Penicillium minioluteum (M); Sabouraud-4% Dextrose-Agar, pH 5.6 (+/−0.2)
Procedure: as §1

[16] = tested on: Saccharomyces cerevisiae; assay: MIC, agar dilution (yeast and mold); settings: Saccharomyces cerevisiae (Y); Sabouraud-4% Dextrose-Agar, pH 5.6 (+/−0.2)
Procedure: as §1

Cyclic N-Octanoyl/Decanoyl-N-Methylxylosamide [N-Methyl Xylosamid]
MIC of N-Methyl Xylosamid* (70% active) in water [1]: 7500 ppm | MIC of N-Methyl Xylosamid* (70% active) in water [2]: 15000 ppm | MIC of N-Methyl Xylosamid* (70% active) in water [3]: 15000 ppm | MIC of N-Methyl Xylosamid* (70% active) in water [4]: 1000 ppm | MIC of N-Methyl Xylosamid* (70% active) in water [5]: 15000 ppm | MIC of N-Methyl Xylosamid* (70% active) in water [6]: 10000 ppm | MIC of N-Methyl Xylosamid* (70% active) in water [7]: 10000 ppm | MIC of N-Methyl Xylosamid* (70% active) in water [8]: <500 ppm | MIC of N-Methyl Xylosamid* (70% active) in water [9]: 2000 ppm | MIC of N-Methyl Xylosamid* (70% active) in water [10]: 3000 ppm | MIC of N-Methyl Xylosamid* (70% active) in water [11]: 3000 ppm | MIC of N-Methyl Xylosamid* (70% active) in water [12]: 7500 ppm | MIC of N-Methyl Xylosamid* (70% active) in water [13]: 1000 ppm | MIC of N-Methyl Xylosamid* (70% active) in water [14]: 1000 ppm | MIC of N-Methyl Xylosamid* (70% active) in water [15]: 1500 ppm | MIC of N-Methyl Xylosamid* (70% active) in water [16]: 1000 ppm
